Read-outs that look alike come from different tables or passages of the source.
Assay: Pharmacokinetic study in mice, plasma and brain structures, LC/MS/MS
Format: in vivo, Swiss albino mice
Details: Swiss albino, mouse, ip, 0.625 mg/kg i.p.
Protocol: Blood samples from the Swiss albino mice were collected at 0 (pre-dose), 5, 15, 30, 60, 120, 240 and 480 min after a compound administration. The blood samples and brain structures were collected under general anesthesia induced by i.p. injection of 50 mg/kg ketamine plus 8 mg/kg xylazine. The blood samples were taken into heparinized tubes, immediately centrifuged at 1000 × g for 10 min, and plasma was collected. The plasma samples and brain structures were immediately frozen at -30°C and -80°C, respectively.
The plasma and tissue sample pretreatment procedure involved acetonitrile precipitation. A 5 μL aliquot of the IS working solution (100 ng/mL) was added to 50 μL of the collected mouse plasma sample, which was then vortex-mixed for 10 seconds. Thereafter, 200 μL of acetonitrile was added, vortexed during 20 min, and then centrifuged (1000 × g, 10 min). The supernatant (100 μL) was then transferred to insert placed in an autosampler vial, and a 10 μL volume of this was injected onto the HPLC column. Tissue samples were thawed before use, and whole hippocampus, striatum and frontal cortex were weighted and placed in a glass mortar and pestle tissue grinder and homogenized with an appropriate amount of phosphate buffer (pH 7.4) in 1:5 ratio. Afterward, 50 μL of tissue homogenates were transferred to new Eppendorf tubes and spiked with 5 μL of the internal standard working solution. All samples were stored on ice during the preparation process. This was followed by procedures like those described above.
The LC/ESI-MS/MS experiments were performed on an Applied Biosystems/MDS Sciex (Concord, Ontario, Canada) API 2000 triple quadrupole mass spectrometer equipped with an electrospray (ESI) ionization interface. This instrument was coupled to an Agilent 1100 (Agilent Technologies, Waldbronn, Germany) LC system. Data acquisition and processing were accomplished using Sciex Analyst 1.4.2 data collection and integration software.
An XBridge C18 (2.1 x 30 mm, 3.5 μm) analytical column (Waters, Milford, Massachusetts, USA) was used for compound separation. The temperatures of the column thermostat and the autosampler were set at 25°C and 10°C, respectively. The mobile phase consisted of a mixture of acetonitrile with addition of 0.1% formic acid (solvent A) and water with addition of 0.1% formic acid (solvent B) and was set at a flow rate of 0.6 mL/min. Starting amount of solvent A is 10%, isocratic elution from 0 to 3 min, and then gradient up to 90% of solvent A, and maintained to 10 min, and then gradient down to 10% of solvent A, and maintained to 15 min.
The ion source parameters were as follows: ion spray voltage: 5500 V; nebulizer gas (gas 1): 20 psi; turbo gas (gas 2): 25 psi; temperature of the heated nebulizer: 400°C; curtain gas: 40 psi; collision gas: 6 psi. Mass spectra were acquired by SRM with precursor/predominant product ion transitions for each analyte. The mass spectral Q1→Q3 transitions monitored for AZ-853, AZ-861 and for IS (nebivolol), were m/z 453.9→235.1; 504.3→285.1 and 406.2→151.1, respectively. The peak widths of precursor and product ions were set to 0.7 full width half-height. Quantification was done via peak area ratio.
Pharmacokinetic parameters were calculated by a non-compartmental approach from the average concentration values, using Phoenix WinNonlin software (Certara, Princeton, NJ 08540 USA). First order elimination rate constant (λz) was calculated by linear regression of time versus log concentration. Next, the area under the mean serum and tissue concentration versus time curve (AUC0→t) was estimated using the log-linear trapezoidal rule (1), where Ci is the plasma concentration measured at t1.
AUC0→t=∑i=1n((Ci+Ci+1)/2)∙(ti+1−ti). (1)
Area under the first-moment curve (AUMC0→t) was estimated by calculation of the total area under the first-moment curve using the Eq (2), where Ci is the plasma concentration measured at t1. AUMC0→t=∑i=1n((ti∙Ci+ti+1∙Ci+1)/2)∙(ti+1−ti). […]

[1] = hippocampus, 0.625 mg/kg, read-out: Concentration, hippocampus (individual animals)
[2] = hippocampus, 0.625 mg/kg, read-out: Concentration, hippocampus (Mean)
[3] = plasma, 0.625 mg/kg, read-out: Concentration, plasma (Mean)
[4] = plasma, 0.625 mg/kg, read-out: Concentration, plasma (individual animals)
[5] = striatum, 0.625 mg/kg, read-out: Concentration, striatum (Mean)
[6] = striatum, 0.625 mg/kg, read-out: Concentration, striatum (individual animals)

Cn1c(=O)c2c(nc3n(CCCCN4CCN(c5ccccc5F)CC4)ccn23)n(C)c1=O [AZ-853, 8-(4-(4-(2-fluorophenyl)piperazin-1-yl)butyl)-1,3-dimethyl-1H-imidazo[2,1-f]purine-2,4(3H,8H)-dione]
concentration at 5 min [1]: 205 ng/mL
concentration at 15 min [2]: 271 ng/mL
concentration at 15 min [1]: 228 ng/mL
concentration at 30 min [2]: 125 ng/mL
concentration at 30 min [1]: 125 ng/mL
concentration at 60 min [2]: 44.3 ng/mL
concentration at 60 min [1]: 38.9 ng/mL
concentration at 120 min [2]: 12.6 ng/mL
concentration at 120 min [1]: 14.1 ng/mL
concentration at 240 min [2]: 8.83 ng/mL
concentration at 240 min [1]: 9.85 ng/mL
concentration at 480 min [2]: 2.07 ng/mL
Cmax (hippocampus, 0.625 mg/kg, read-out: Cmax, hippocampus): 272 ng/g
Tmax (hippocampus, 0.625 mg/kg, read-out: tmax, hippocampus (converted)): 15 min
CL/F (plasma): 570 mL/min/kg
AUC(0-t) (plasma, read-out: AUC0→t, plasma (converted)): 17.7 ng·h/mL
MRT (plasma, read-out: MRT, plasma (converted)): 85.8 min
concentration at 5 min [3]: 23.1 ng/mL
concentration at 5 min [4]: 25.4 ng/mL
concentration at 15 min [3]: 13.4 ng/mL
concentration at 15 min [4]: 12.2 ng/mL
concentration at 30 min [3]: 7.76 ng/mL
concentration at 30 min [4]: 9.11 ng/mL
concentration at 60 min [3]: 1.78 ng/mL
concentration at 120 min [3]: 4.08 ng/mL
concentration at 120 min [4]: 3.22 ng/mL
concentration at 240 min [3]: 0.38 ng/mL
concentration at 480 min [3]: 0.29 ng/mL
concentration at 480 min [4]: 0.25 ng/mL
Vd/F (plasma, 0.625 mg/kg, plasma, read-out: Vd/F): > 67 L/kg
Cmax (plasma, 0.625 mg/kg, read-out: Cmax, plasma): 23.1 ± 16 ng/mL
Tmax (plasma, 0.625 mg/kg, read-out: tmax, plasma): ≤ 5 min
Kp (striatum, ratio of AUC values, read-out: Brain structure-to-plasma concentration ratio, striatum (S/P)): 19.9
AUC(0-t) (striatum, read-out: AUC0→t, striatum (converted)): 352 ng·h/mL
MRT (striatum, read-out: MRT, striatum (converted)): 56.3 min
concentration at 5 min [5]: 337 ng/mL
concentration at 5 min [6]: 290 ng/mL
concentration at 15 min [5]: 404 ng/mL
concentration at 15 min [6]: 398 ng/mL
concentration at 30 min [5]: 262 ng/mL
concentration at 30 min [6]: 307 ng/mL
concentration at 60 min [5]: 65.5 ng/mL
concentration at 60 min [6]: 78.3 ng/mL
concentration at 120 min [5]: 40.9 ng/mL
concentration at 120 min [6]: 48.7 ng/mL
concentration at 240 min [5]: 5.58 ng/mL
concentration at 480 min [5]: 1.4 ng/mL
Cmax (striatum, 0.625 mg/kg, read-out: Cmax, striatum): 404 ng/g
Tmax (striatum, 0.625 mg/kg, read-out: tmax, striatum (converted)): 15 min

From article PMC7413516, “Antidepressant-like activity and safety profile evaluation of 1H-imidazo[2,1-f]purine-2,4(3H,8H)-dione derivatives as 5-HT1A receptor partial agonists” (PLoS ONE, 2020)
